Inconclusive results and toxic doses are left out. Rule as the data show it: active = T/C of 150% or more; inactive = T/C below 125%.
Tested on: L1210 leukemia ip in BDF1 mice, survival T/C
Test: NCI In Vivo Anticancer Drug Screen. Data for tumor model L1210 Leukemia (intraperitoneal) in B6D2F1 (BDF1) mice
Details: endpoint: mean survival time, higher = longer survival
Summary of the method: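 Transplanted-tumor mice were given test agent; controls received vehicle only. Survival readings from the two groups were divided (treated over control).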

[1] = dose: 50.0 mg/kg/injection, schedule: Q01DX001 (ip), vehicle: saline
[2] = dose: 100.0 mg/kg/injection, schedule: Q01DX001 (ip), vehicle: saline
[3] = dose: 200.0 mg/kg/injection, schedule: Q01DX001 (ip), vehicle: saline
[4] = dose: 400.0 mg/kg/injection, schedule: Q01DX001 (ip), vehicle: saline
[5] = dose: 100.0 mg/kg/injection, schedule: Q01DX009 (ip), vehicle: Klucel (hydroxypropylcellulose) (HPC)
[6] = dose: 100.0 mg/kg/injection, schedule: Q04DX003 (ip), vehicle: Klucel (hydroxypropylcellulose) (HPC)
[7] = dose: 200.0 mg/kg/injection, schedule: Q01DX009 (ip), vehicle: Klucel (hydroxypropylcellulose) (HPC)
[8] = dose: 200.0 mg/kg/injection, schedule: Q04DX003 (ip), vehicle: Klucel (hydroxypropylcellulose) (HPC)
[9] = dose: 400.0 mg/kg/injection, schedule: Q04DX003 (ip), vehicle: Klucel (hydroxypropylcellulose) (HPC)
[10] = dose: 100.0 mg/kg/injection, schedule: Q01DX001 (ip), vehicle: saline with Tween-80
[11] = dose: 200.0 mg/kg/injection, schedule: Q01DX001 (ip), vehicle: saline with Tween-80
[12] = dose: 400.0 mg/kg/injection, schedule: Q01DX001 (ip), vehicle: saline with Tween-80
[13] = dose: 400.0 mg/kg/injection, schedule: Q01DX009 (ip), vehicle: Klucel (hydroxypropylcellulose) (HPC)
[14] = dose: 100.0 mg/kg/injection, schedule: Q04DX003 (ip), vehicle: saline with Tween-80
[15] = dose: 200.0 mg/kg/injection, schedule: Q04DX003 (ip), vehicle: saline with Tween-80
[16] = dose: 400.0 mg/kg/injection, schedule: Q04DX003 (ip), vehicle: saline with Tween-80
[17] = dose: 100.0 mg/kg/injection, schedule: Q04DX002 (ip), vehicle: saline with Tween-80
[18] = dose: 200.0 mg/kg/injection, schedule: Q04DX002 (ip), vehicle: saline with Tween-80
[19] = dose: 400.0 mg/kg/injection, schedule: Q04DX002 (ip), vehicle: saline with Tween-80
[20] = dose: 100.0 mg/kg/injection, schedule: Q01DX009 (ip), vehicle: saline with Tween-80
[21] = dose: 200.0 mg/kg/injection, schedule: Q01DX009 (ip), vehicle: saline with Tween-80
[22] = dose: 400.0 mg/kg/injection, schedule: Q01DX009 (ip), vehicle: saline with Tween-80

Measured: T/C

Cc1c(C(=O)/C=C/c2ccccc2)cc([N+](=O)[O-])cc1[N+](=O)[O-]
inactive: [1] 92 % of control | [2] 98 % of control | [3] 100 % of control | [4] 93 % of control

CNC(=O)N(CCC#N)C1CCCCC1
inactive: dose: 100.0 mg/kg/injection, schedule: Q04DX003 (ip), vehicle: other 104 % of control | dose: 200.0 mg/kg/injection, schedule: Q04DX003 (ip), vehicle: other 106 % of control | dose: 400.0 mg/kg/injection, schedule: Q04DX003 (ip), vehicle: other 96 % of control

COC(=O)c1cc([N+](=O)[O-])cc2ccccc12
inactive: [5] 99 % of control | [6] 105 % of control | [7] 96 % of control | [8] 94 % of control | [9] 97 % of control

O=C(O)c1ccccc1C(=O)Nc1ccc(F)cc1
inactive: [6] 103 % of control | [3] 106 % of control | [8] 87 % of control | [4] 96 % of control | [9] 94 % of control

CCCCC/C=C/C/C=C/CCCCCCCC(=O)N1CCOCC1
inactive: [10] 94 % of control | [11] 96 % of control | [12] 97 % of control

NNc1nc(Cl)cc2c1ncn2C1OC(CO)C(O)C1O (stereo not drawn)
inactive: dose: 100.0 mg/kg/injection, schedule: Q01DX005 (ip), vehicle: saline 98 % of control | dose: 200.0 mg/kg/injection, schedule: Q01DX005 (ip), vehicle: saline 113 % of control

CCCCCCCCCCCCNCCC#N
inactive: dose: 100.0 mg/kg/injection, schedule: Q04DX002 (sc), vehicle: olive oil, sesame oil, peanut oil 100 % of control | dose: 200.0 mg/kg/injection, schedule: Q04DX002 (sc), vehicle: olive oil, sesame oil, peanut oil 98 % of control | dose: 400.0 mg/kg/injection, schedule: Q04DX002 (sc), vehicle: olive oil, sesame oil, peanut oil 98 % of control

CCOc1c(Cl)c(Cl)c(Cl)c(Cl)c1Cl
inactive: [5] 91 % of control | [7] 97 % of control | [13] 91 % of control

NC(=S)NNC=O
inactive: [6] 95 % of control | [8] 92 % of control | [9] 100 % of control

OC1(C#CC2(O)CCCC2)CCCC1
inactive: dose: 50.0 mg/kg/injection, schedule: Q01DX001 (ip), vehicle: carboxymethylcellulose (CMC) 98 % of control | dose: 100.0 mg/kg/injection, schedule: Q01DX001 (ip), vehicle: carboxymethylcellulose (CMC) 95 % of control | dose: 200.0 mg/kg/injection, schedule: Q01DX001 (ip), vehicle: carboxymethylcellulose (CMC) 87 % of control | dose: 400.0 mg/kg/injection, schedule: Q01DX001 (ip), vehicle: carboxymethylcellulose (CMC) 93 % of control

N#CC1=C(N)CCP(c2ccccc2)C1 (stereo not drawn)
inactive: [14] 94 % of control | [15] 97 % of control | [16] 100 % of control

O=C(NCCCl)Nc1cccc2cc3ccccc3cc12
inactive: [5] 95 % of control | [6] 96 % of control | [7] 103 % of control | [8] 96 % of control | [13] 95 % of control | [9] 102 % of control

O=C(O)CN1C(=O)C2C3CCC(C3)C2C1=O (stereo not drawn)
inactive: [14] 97 % of control | [15] 97 % of control | [16] 94 % of control

NC(c1ccccc1)c1c(O)ccc2ccccc12 (stereo not drawn)
inactive: dose: 100.0 mg/kg/injection, schedule: Q01DX009 (ip), vehicle: gum acacia 96 % of control | [14] 101 % of control | dose: 200.0 mg/kg/injection, schedule: Q01DX009 (ip), vehicle: gum acacia 98 % of control | [15] 93 % of control | dose: 400.0 mg/kg/injection, schedule: Q01DX009 (ip), vehicle: gum acacia 91 % of control | [16] 98 % of control

NC(N)=N/N=C\CCC/C=N/N=C(N)N
inactive: dose: 15.0 mg/kg/injection, schedule: Q01DX Z (ip), vehicle: saline 98 % of control | dose: 30.0 mg/kg/injection, schedule: Q01DX Z (ip), vehicle: saline 97 % of control | dose: 60.0 mg/kg/injection, schedule: Q01DX Z (ip), vehicle: saline 105 % of control | dose: 60.0 mg/kg/injection, schedule: Q01DX Z (oral), vehicle: other 95 % of control | dose: 120.0 mg/kg/injection, schedule: Q01DX Z (ip), vehicle: saline 94 % of control | dose: 120.0 mg/kg/injection, schedule: Q01DX Z (oral), vehicle: other 100 % of control | dose: 240.0 mg/kg/injection, schedule: Q01DX Z (oral), vehicle: other 97 % of control | dose: 480.0 mg/kg/injection, schedule: Q01DX Z (oral), vehicle: other 102 % of control

CCOC(=O)COCC(=O)OCC
inactive: [17] 98 % of control | [18] 98 % of control | [19] 102 % of control

C=CCn1c(-c2ccc(N(C)C)cc2)nc2c(Cl)ncnc21
inactive: dose: 5.0 mg/kg/injection, schedule: Q01DX009 (ip), vehicle: steriod suspending solution 97 % of control | dose: 9.0 mg/kg/injection, schedule: Q01DX009 (ip), vehicle: steriod suspending solution 98 % of control | dose: 14.0 mg/kg/injection, schedule: Q01DX009 (ip), vehicle: steriod suspending solution 102 % of control | dose: 24.0 mg/kg/injection, schedule: Q01DX009 (ip), vehicle: steriod suspending solution 95 % of control

C=CCCCCCCCCO
inactive: [1] 98 % of control | [2] 95 % of control | [3] 95 % of control

COC1(c2cccs2)OC1(C)C (stereo not drawn)
inactive: [20] 110 % of control | [21] 94 % of control | [22] 100 % of control

Brc1cscc1Cc1cscc1Br
inactive: [10] 91 % of control | [11] 97 % of control | [12] 94 % of control

CCC1(c2ccccc2)C(=O)NC(=O)N(Cc2ccccc2)C1=O (stereo not drawn)
inactive: [20] 109 % of control | [17] 89 % of control | [21] 98 % of control | [18] 95 % of control | [22] 98 % of control | [19] 103 % of control

From PubChem BioAssay AID248 (DTP/NCI, 2004)
